Holding throughout (experiment): DTP human tumour cell line panel, 48 h
Assay [1] has as its system HT29 colon.
In assay [2] the test system is SNB-75 CNS.
Assay [3] relates to HCC-2998 colon.
Assay [4] has as its system SK-MEL-2 melanoma.
Assay [5] deals with OVCAR-8 ovarian.
Assay [6] relates to SK-OV-3 ovarian.
In assay [7] the test system is HOP-62 NSCLC.
The subject of assay [8] is HOP-92 NSCLC.
For assay [9], the system named is CAKI-1 renal.

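In this assay, cells in 96-well plates receive the compound at five concentrations for 48 hours. Endpoints are linearly interpolated between the surrounding concentrations. GI50 is the concentration that inhibits growth by half. TGI marks complete inhibition of growth.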

As usually defined, the TGI is the concentration giving total growth inhibition. A lower TGI goes with greater sensitivity of the cells. For the compound `CSc1nc(NC2OC(COC(C)=O)C(OC(C)=O)C(OC(C)=O)C2OC(C)=O)c2c(OC(C)=O)c(C)c(=O)oc2n1` (stereo not drawn), the TGI in assay [1], in assay [2], in assay [3], in [4], in [5] and in assay [6] was more than 100 µM each time. In addition, the concentration for total growth inhibition (TGI) in assay [7], in assay [8] and in [9] was more than 100 µM in each case.
As for `CNC=O.[O]=[Ge].[O]=[Ge].[O]=[Ge].[O]=[Ge][OH].[O]=[Ge][OH]`, the TGI in assay [1], in assay [2], in assay [3], in assay [4], in assay [5] and in assay [7] was more than 100 µM each time. For the same compound, the TGI in assay [8] and in assay [9] was more than 100 µM each time.
Take `CCC(C)(O)c1cn(-c2cccc(S(=O)(=O)O)c2)nn1` (stereo not drawn): the TGI in [1], in assay [2], in assay [3], in assay [4], in assay [5] and in assay [6] was more than 100 µM throughout. Besides, the TGI in assay [7], in assay [8] and in assay [9] was more than 100 µM each time.
On to `O=S(O)CCCCSSCCCCSSCCCCS(=O)O`, for which the TGI in [2], in assay [3], in [4], in [5], in assay [6] and in assay [9] was more than 100 µM each time.
For orientation: GI50 means the concentration giving 50% growth inhibition. For the compound `CC(C)=[CH][Sb]([Br])([CH]=C(C)C)([CH]=C(C)C)[CH]=C(C)C`, the GI50 was 15.1 µM in assay [1]; 26 µM in assay [3]; 15.4 µM in assay [4]; 23 µM in assay [5]; 2.5 µM in assay [6]; 40.3 µM in [7]. The GI50 in assay [9] was 46.1 µM. For the same compound, the TGI in [1] was more than 100 µM; in assay [3], more than 100 µM; in assay [4], more than 100 µM; in assay [5], more than 100 µM; in assay [6], 8.83 µM; in [7] it was more than 100 µM. The compound also had a TGI in [9] of more than 100 µM.
In the case of `O=C(/C=C/c1ccccc1Cl)c1ccccc1Cl`, the TGI in assay [1] was 41.3 µM; in [2] it was 74.9 µM; in [3] it was 39.1 µM; in [5], 33.6 µM; in [6], more than 100 µM; in [7] it was more than 100 µM. The TGI was 77.2 µM in [8] and 38.1 µM in assay [9].
For the compound `Cc1cccc(C(C)(C)C)c1NC(=O)CCc1n[nH]c(=S)o1`, the TGI in [1], in assay [2], in assay [3], in assay [5], in [6] and in assay [7] was more than 100 µM each time. The TGI in [8] and in assay [9] was more than 100 µM each time.
`CCc1cccc(C)c1NC(C)=O`: the TGI in assay [1], in assay [2], in assay [3], in assay [4], in assay [5] and in assay [6] was more than 100 µM in each case. In addition, the TGI in assay [7] and in [9] was more than 100 µM in each case.
`CCN(CC)C(=O)C/C(C)=N/NC(=O)c1ccncc1`: the TGI in assay [1], in assay [2], in assay [3], in assay [4], in assay [5] and in assay [6] was more than 100 µM each time. The TGI in assay [7] and in assay [8] was more than 100 µM in each case.
With `COC(=O)CSc1n[nH]c(-c2ccc(O)c([N+](=O)[O-])c2)n1`, the TGI in assay [1], in assay [2], in [3], in assay [4], in [5] and in assay [8] was more than 100 µM throughout. The compound also came in with a TGI in assay [9] of more than 100 µM.
Regarding `COc1ccc(C(=O)O)c(Cc2cccc3ccccc23)c1`, the TGI in assay [1], in [2], in assay [3], in assay [4], in [5] and in assay [6] was more than 100 µM each time. The TGI in assay [7] and in [9] was more than 100 µM each time.
For `CC#CC(=O)Nc1ccccc1CC(c1c[nH]c2ccccc12)c1c[nH]c2ccccc12`, the TGI amounted to 42.5 µM in assay [1]; 38.8 µM in [2]; 32.7 µM in assay [3]; 34.4 µM in assay [4]; 76.7 µM in assay [5]; 59.3 µM in assay [6]. The TGI in assay [7] was 35.9 µM; in [9], 58.9 µM.
For `NCCCNCCSSCCCCS(=O)O`, the TGI in assay [1], in assay [2], in assay [3], in assay [5], in [6] and in [7] was more than 100 µM in each case. For the same compound, the TGI in [8] and in assay [9] was more than 100 µM throughout.
As for `CCCCn1c(-c2ccc(C(=O)O/N=C(\N)c3ccc(OC)cc3)cc2)nc(-c2ccccc2)c1-c1ccccc1`, the GI50 is 2.9 µM in [1]; 1.36 µM in assay [2]; 2.75 µM in assay [4]; 3.76 µM in assay [6]; 0.816 µM in [8]; 1.29 µM in assay [9]. For the same compound, the TGI in [1] was more than 100 µM; in [2] it was 3.05 µM; in assay [4], 8.36 µM; in assay [6] it was more than 100 µM; in assay [8], 2.41 µM; in [9], 2.71 µM.
As for `CCOC(=O)[C@H]1Nc2ccc(C)cc2C2c3ccccc3CC21` (stereo partly drawn), the TGI in [1], in assay [2], in assay [3], in assay [4], in assay [5] and in [7] was more than 100 µM each time. The compound further had a TGI in assay [9] of more than 100 µM.

(Values after PubChem BioAssay (NCI).)
